# Patent US20260109731A1, “NE[…] USE THEREOF” (HUNAN MINGRUI PHARMACEUTICAL CO., LTD., priority 2023, published 2026)
# Where two headings read alike, the source gives them in different places.
# Experiments:
# [1] = Pharmacokinetic analysis of oral gavage administration in female rats; conditions: 12 mg/kg
# Experimental: (§1) • Female SD rats (body weight: 200 g to 220 g) were purchased from BEIJING HFK BIOSCIENCE CO., LTD.
# 60 female SD rats were divided into two groups (Aoral and Boral), with 30 rats per group (5 rats per blood collection time point). The drugs Aoral and Boral were administered via oral gavage administration at 12 mg/kg each (about 1.6 mL of drug solution). Blood was collected from the orbital venous plexus at each time point (5 min, 30 min, 1 h, 2 h, 4 h, and 8 h) after administration, respectively, anticoagulated with heparin, and centrifuged, and then the plasma was separated and stored at −80° C. for later testing. At 8 h after blood collection, the animals were sacrificed, and the brain and Liver tissues were taken and stored at −80° C. for later testing.
# (§2) 100 μL of plasma sample, 10 μL of internal standard solution (100 ng/mL testosterone D-3 solution), and 310 μL of acetonitrile were accurately measured, uniformly mixed by vortexing, and centrifuged (14000 rpm, 4° C.), and a resulting supernatant was taken and detected using UPLC-MS/MS (the analysis method was the same as that in pharmacokinetic analysis in mice).
# (§3) About 100 mg of brain or liver tissue sample was taken, and accurately weighed. 100 μL of water and 400 μL acetonitrile were accurately added thereto, and a resulting mixture was subjected to homogenization. 100 μL of brain or liver tissue homogenate, 10 μL of internal standard solution (100 ng/mL testosterone D-3 solution), and 310 μL of acetonitrile were accurately measured, uniformly mixed by vortexing, and centrifuged (14000 rpm, 4° C.), and a resulting supernatant was taken and detected using UPLC-MS/MS (the analysis method was the same as that in pharmacokinetic analysis in mice).
# [2] = Pharmacokinetic analysis of tail vein administration in female rats; conditions: 3 mg/kg
# Experimental: as §1
# 60 female SD rats were divided into two groups (Aintravenous and Bintravenous), with 30 rats per group (5 rats per blood collection time point). The drugs Aintravenous and Bintravenous were administered via tail vein injection at 3 mg/kg each (about 1.2 mL of drug solution). Blood was collected from the orbital venous plexus at time points (5 min, 30 min, 1 h, 2 h, 4 h, and 8 h) after administration, respectively, anticoagulated with heparin, and centrifuged, and then the plasma was separated and stored at −80° C. for later testing. At 8 h after blood collection, the animals were sacrificed, and the brain and liver tissues were taken and stored at −80° C. for later testing.
# as §2, §3
# [3] = Pharmacokinetic analysis of oral administration to male rats; type: in vivo; conditions: oral gavage 12 mg/kg; for Blood drug concentration: individual rats 1-7; for concentration at 0.5 h / concentration at 1 h / concentration at 2 h / concentration at 3 h / concentration at 4 h / concentration at 5 h / concentration at 6 h / concentration at 8 h / concentration at 10 h / concentration at 12 h / concentration at 18 h / concentration at 24 h: male, SD, rat, plasma, po, 12 mg/kg
# Text: Male SD rats (body weight: 230 g to 250 g) were purchased from BEIJING HFK BIOSCIENCE CO., LTD.
# [4] = Pharmacokinetic analysis of tail vein administration in mice; conditions: female, ICR, mouse, 5 mg/kg
# Experimental: Female ICR mice (body weight: 20 g to 22 g) were purchased from BEIJING HFK BIOSCIENCE CO., LTD.
# The animals were sacrificed at blood collection time points (5 min, 1 h and 8 h) for brain tissue collection, and the collected brain tissues were stored at −80° C. for later testing.
# 100 μL of plasma sample, 10 μL of internal standard solution (100 ng/mL testosterone D-3 solution), and 310 μL of acetonitrile were accurately measured, uniformly mixed by vortexing, and centrifuged (14000 rpm, 4° C.), and a resulting supernatant was taken to obtain the plasma sample.
# as §3, with “brain” for “brain or liver”, “weighed,” for “weighed.”, “to obtain” for “and detected using UPLC-MS/MS (the analysis method was”, “brain tissue sample.” for “same as that in pharmacokinetic analysis in mice).”
# 100 μL of blank plasma sample, 10 μL of mixed standard solution, 10 μL of internal standard solution (100 ng/mL testosterone D-3 solution), and 300 μL of acetonitrile were accurately measured, uniformly mixed by vortexing, and centrifuged (14000 rpm, 4° C.), and a resulting supernatant was taken to obtain the plasma matrix standard solution.
# About 100 mg of blank brain tissue sample was taken, and accurately weighed, 100 μL of water and 400 μL acetonitrile were accurately added thereto, and a resulting mixture was subjected to homogenization using a homogenizer. 100 μL of brain tissue homogenate, 10 μL of mixed standard solution, 10 μL of internal standard solution (100 ng/mL testosterone D-3 solution) and 300 μL of acetonitrile were accurately measured, uniformly mixed by vortexing, and centrifuged (14000 rpm, 4° C.), and a resulting supernatant was taken to obtain the Brain tissue matrix standard solution.
# The UPLC-MS/MS method with testosterone D-3 as the internal standard was used to perform analysis and determination by the standard curve method.
# [5] = female SD rats, tail vein, 8 h after administration
compound,measurement,setting,value
"CC(=O)[C@H]1CC[C@H]2[C@@H]3CC[C@H]4C[C@H](O)CC[C@]4(C)[C@H]3CC[C@]12C [Allopregnanolone, 5α-pregnan-3α-ol-20-one, reference compound]",level of the administered compound in the liver tissue (for compound 1 the sentence prints: in the plasma),"[1]; female SD rats, oral administration, 8 h after administration",undetectable
same,level in plasma and brain tissue at all time points,"[1]; female SD rats, oral gavage",undetectable
same,bioavailability,"[1]; female, SD, rat, plasma, oral",0%
same,level of the administered compound in the liver,"[2]; female SD rats, intravenous (tail vein), 8 h after administration",undetectable
same,concentration in brain tissue,[2]; [5],undetectable
same,concentration in plasma,[2]; [5],undetectable
same,clearance,"[2]; female, SD, rat, plasma, iv",109 mL/min/kg
same,half-life,"[2]; female, SD, rat, plasma, iv",52.2 min
same,Blood drug concentration,"[3]; male SD rats, 0.5 h",0 ng/mL
same,level in the plasma at all time points,"[3]; male SD rats, 30 min to 24 h",undetectable
same,Blood drug concentration,"[3]; male SD rats, 1 h",0 ng/mL
same,Blood drug concentration,"[3]; male SD rats, 2 h",0 ng/mL
same,Blood drug concentration,"[3]; male SD rats, 3 h",0 ng/mL
same,Blood drug concentration,"[3]; male SD rats, 4 h",0 ng/mL
same,Blood drug concentration,"[3]; male SD rats, 5 h",0 ng/mL
same,Blood drug concentration,"[3]; male SD rats, 6 h",0 ng/mL
same,Blood drug concentration,"[3]; male SD rats, 8 h",0 ng/mL
same,Blood drug concentration,"[3]; male SD rats, 10 h",0 ng/mL
same,Blood drug concentration,"[3]; male SD rats, 12 h",0 ng/mL
same,Blood drug concentration,"[3]; male SD rats, 18 h",0 ng/mL
same,Blood drug concentration,"[3]; male SD rats, 24 h",0 ng/mL
same,concentration at 0.5 h,"[3]; 0.5 h, individual rats 1-7, read-out: Blood drug concentration",0 ng/mL
same,concentration at 0.5 h,"[3]; 0.5 h, mean of 7 rats, read-out: Blood drug concentration, Mean value",0 ng/mL
same,concentration at 1 h,"[3]; 1 h, individual rats 1-7, read-out: Blood drug concentration",0 ng/mL
same,concentration at 1 h,"[3]; 1 h, mean of 7 rats, read-out: Blood drug concentration, Mean value",0 ng/mL
same,concentration at 2 h,"[3]; 2 h, individual rats 1-7, read-out: Blood drug concentration",0 ng/mL
same,concentration at 2 h,"[3]; 2 h, mean of 7 rats, read-out: Blood drug concentration, Mean value",0 ng/mL
same,concentration at 3 h,"[3]; 3 h, individual rats 1-7, read-out: Blood drug concentration",0 ng/mL
same,concentration at 3 h,"[3]; 3 h, mean of 7 rats, read-out: Blood drug concentration, Mean value",0 ng/mL
same,concentration at 4 h,"[3]; 4 h, individual rats 1-7, read-out: Blood drug concentration",0 ng/mL
same,concentration at 4 h,"[3]; 4 h, mean of 7 rats, read-out: Blood drug concentration, Mean value",0 ng/mL
same,concentration at 5 h,"[3]; 5 h, individual rats 1-7, read-out: Blood drug concentration",0 ng/mL
same,concentration at 5 h,"[3]; 5 h, mean of 7 rats, read-out: Blood drug concentration, Mean value",0 ng/mL
same,concentration at 6 h,"[3]; 6 h, individual rats 1-7, read-out: Blood drug concentration",0 ng/mL
same,concentration at 6 h,"[3]; 6 h, mean of 7 rats, read-out: Blood drug concentration, Mean value",0 ng/mL
same,concentration at 8 h,"[3]; 8 h, individual rats 1-7, read-out: Blood drug concentration",0 ng/mL
same,concentration at 8 h,"[3]; 8 h, mean of 7 rats, read-out: Blood drug concentration, Mean value",0 ng/mL
same,concentration at 10 h,"[3]; 10 h, individual rats 1-7, read-out: Blood drug concentration",0 ng/mL
same,concentration at 10 h,"[3]; 10 h, mean of 7 rats, read-out: Blood drug concentration, Mean value",0 ng/mL
same,concentration at 12 h,"[3]; 12 h, individual rats 1-7, read-out: Blood drug concentration",0 ng/mL
same,concentration at 12 h,"[3]; 12 h, mean of 7 rats, read-out: Blood drug concentration, Mean value",0 ng/mL
same,concentration at 18 h,"[3]; 18 h, individual rats 1-7, read-out: Blood drug concentration",0 ng/mL
same,concentration at 18 h,"[3]; 18 h, mean of 7 rats, read-out: Blood drug concentration, Mean value",0 ng/mL
same,concentration at 24 h,"[3]; 24 h, individual rats 1-7, read-out: Blood drug concentration",0 ng/mL
same,concentration at 24 h,"[3]; 24 h, mean of 7 rats, read-out: Blood drug concentration, Mean value",0 ng/mL
same,concentration at 5 min,"[4]; brain, intravenous",1070 ng/g
same,concentration at 1 h,"[4]; brain, intravenous",47.3 ng/g
same,concentration at 8 h,"[4]; brain, intravenous",14.4 ng/g
same,Kp at 5 min,"[4]; brain/plasma, intravenous",1.28
same,Kp at 1 h,"[4]; brain/plasma, intravenous",2.71
same,clearance,"[4]; plasma, iv",218 mL/min/kg
same,half-life,"[4]; plasma, iv",40.8 min
